Laboratory results as given in PubChem BioAssay AID1745844 (Carcinogenic Potency Database (CPDB), 2022).
Values joined by “and” are separate entries in the source; they are usually repeats but may differ in a detail not shown here. Equal entries are not always repeated. Active and inactive are the calls of the source. The rule behind the calls is not given here.

Test system: rodent lifetime carcinogenesis bioassay, tumor incidence TD50
Assay: chronic cancer bioassays in animals – CPDB, compiled studies (AID 1745844)
Conditions: inhaled, dosed 104 weeks, study length 104 weeks; for carcinogen call: site: liver, lesion: one or several types, types not named

In the case of `C=CC(=C)Cl`, the TD50 (mouse, strain B6C3F1, males, site: lung, lesion: alveolar/bronchiolar adenoma + alveolar/bronchiolar carcinoma) is reported as 17.2 mg/kg/day, the TD50 (mouse, strain B6C3F1, males, site: lung, lesion: alveolar/bronchiolar adenoma) is reported as 30.7 mg/kg/day and the TD50 (mouse, strain B6C3F1, males, site: lung, lesion: alveolar/bronchiolar carcinoma) is reported as 26.4 mg/kg/day. For the same compound, the TD50 (mouse, strain B6C3F1, males, site: mesentery, lesion: hemangioma + hemangiosarcoma) was 37.6 mg/kg/day, the TD50 (mouse, strain B6C3F1, males, site: mesentery, lesion: hemangiosarcoma) was 39 mg/kg/day and the TD50 (mouse, strain B6C3F1, males, site: subcutaneous tissue, lesion: hemangiosarcoma) was 177 mg/kg/day. For the same compound, the TD50 (rat, strain Fischer 344, females, site: all sites, lesion: mononuclear-cell leukemia) was 30.4 mg/kg/day, the TD50 (rat, strain Fischer 344, females, site: any site (literature study), lesion: several types, types named in the paper) was 25.4 mg/kg/day and the TD50 (rat, strain Fischer 344, females, site: clitoral gland, lesion: adenoma + adenoma, bilateral + carcinoma + carcinoma, bilateral) was 7.14 mg/kg/day. For the same compound, the TD50 (rat, strain Fischer 344, females, site: clitoral gland, lesion: carcinoma + carcinoma, bilateral) was 12.4 mg/kg/day, the TD50 (rat, strain Fischer 344, females, site: kidney, lesion: tubule adenoma + tubule carcinoma) was 183 mg/kg/day and the TD50 (rat, strain Fischer 344, females, site: kidney, lesion: tubule adenoma) was 461 mg/kg/day and 183 mg/kg/day. For the same compound, the TD50 (rat, strain Fischer 344, females, site: lung, lesion: alveolar/bronchiolar adenoma) was 279 mg/kg/day, the TD50 (rat, strain Fischer 344, females, site: mammary gland, lesion: carcinoma + fibroadenoma) was 20.4 mg/kg/day and the TD50 (rat, strain Fischer 344, females, site: mammary gland, lesion: fibroadenoma) was 16.3 mg/kg/day. It also gave a TD50 (rat, strain Fischer 344, females, site: oral mucosa + gingiva + mammary gland + pharynx + thyroid gland + tongue, lesion: squamous-cell papilloma + carcinoma + fibroadenoma + squamous-cell carcinoma + follicular-cell adenoma + follicular-cell carcinoma) of 23.3 mg/kg/day, a TD50 (rat, strain Fischer 344, females, site: oral mucosa + gingiva + pharynx + tongue, lesion: squamous-cell papilloma + squamous-cell carcinoma) of 33.9 mg/kg/day and a TD50 (rat, strain Fischer 344, females, site: oral mucosa + gingiva + pharynx + tongue, lesion: squamous-cell papilloma) of 61.2 mg/kg/day. It also gave a TD50 (rat, strain Fischer 344, females, site: pharynx + tongue, lesion: squamous-cell carcinoma) of 77.8 mg/kg/day, a TD50 (rat, strain Fischer 344, females, site: thyroid gland, lesion: follicular-cell adenoma + follicular-cell carcinoma) of 113 mg/kg/day and a TD50 (rat, strain Fischer 344, females, site: tongue, lesion: squamous-cell carcinoma + squamous-cell papilloma) of 32.9 mg/kg/day. For the same compound, the TD50 (rat, strain Fischer 344, females, site: tongue, lesion: squamous-cell carcinoma) was 91.1 mg/kg/day, the TD50 (rat, strain Fischer 344, females, site: tongue, lesion: squamous-cell papilloma) was 53.5 mg/kg/day and the TD50 (rat, strain Fischer 344, females, site: urinary bladder, lesion: transitional-cell carcinoma) was 467 mg/kg/day. The TD50 (rat, strain Fischer 344, males, site: all sites, lesion: mesothelioma, malignant) was 27.1 mg/kg/day, the TD50 (rat, strain Fischer 344, males, site: any site (literature study), lesion: several types, types named in the paper) was 6.12 mg/kg/day and the TD50 (rat, strain Fischer 344, males, site: kidney, lesion: tubule adenoma + tubule carcinoma) was 16.1 mg/kg/day. For the same compound, the TD50 (rat, strain Fischer 344, males, site: kidney, lesion: tubule adenoma) was 38.9 mg/kg/day and 15.4 mg/kg/day, the TD50 (rat, strain Fischer 344, males, site: lung, lesion: alveolar/bronchiolar adenoma + alveolar/bronchiolar carcinoma) was 23.8 mg/kg/day and the TD50 (rat, strain Fischer 344, males, site: lung, lesion: alveolar/bronchiolar carcinoma) was 24.5 mg/kg/day. The TD50 (rat, strain Fischer 344, males, site: oral mucosa + gingiva + lung + pharynx + thyroid gland + tongue, lesion: squamous-cell papilloma + alveolar/bronchiolar adenoma + alveolar/bronchiolar carcinoma + follicular-cell adenoma + follicular-c) was 5.79 mg/kg/day, the TD50 (rat, strain Fischer 344, males, site: oral mucosa + gingiva + pharynx + tongue, lesion: squamous-cell papilloma + squamous-cell carcinoma) was 10.1 mg/kg/day and the TD50 (rat, strain Fischer 344, males, site: oral mucosa + gingiva + pharynx + tongue, lesion: squamous-cell papilloma) was 11.1 mg/kg/day. It also gave a TD50 (rat, strain Fischer 344, males, site: oral mucosa + gingiva + pharynx, lesion: squamous-cell papilloma) of 39.2 mg/kg/day, a TD50 (rat, strain Fischer 344, males, site: thyroid gland, lesion: c-cell adenoma) of 20 mg/kg/day and a TD50 (rat, strain Fischer 344, males, site: thyroid gland, lesion: follicular-cell adenoma + follicular-cell carcinoma) of 18.7 mg/kg/day. The TD50 (rat, strain Fischer 344, males, site: thyroid gland, lesion: follicular-cell adenoma) was 22 mg/kg/day, the TD50 (rat, strain Fischer 344, males, site: tongue, lesion: squamous-cell carcinoma + squamous-cell papilloma) was 13.6 mg/kg/day and the TD50 (rat, strain Fischer 344, males, site: tongue, lesion: squamous-cell papilloma) was 15.6 mg/kg/day. For the same compound, the TD50 (rat, strain Fischer 344, males, site: urinary bladder, lesion: transitional-cell carcinoma) was 99.9 mg/kg/day, the TD50 (rat, strain Fischer 344, males, site: urinary bladder, lesion: transitional-cell papilloma) was 468 mg/kg/day and the TD50 (rat, strain Wistar-random, females, site: any site (literature study), lesion: several types, types named in the paper) was 37.4 mg/kg/day (inactive). For the same compound, the carcinogen call (rat, strain Wistar-random, females) was “negative (inactive)”, the TD50 (rat, strain Wistar-random, females, site: mammary gland, lesion: fibroadenoma) was 55.1 mg/kg/day (inactive) and the TD50 (rat, strain Wistar-random, males, site: any site (literature study), lesion: several types, types named in the paper) was 66.4 mg/kg/day (inactive). For the same compound, the carcinogen call (rat, strain Wistar-random, males) was “negative (inactive)”.
